Data published in patent US20110142866A1, “PEPTIDE ANALOGUES AND CONJUGATES THEREOF” (Eldrug S.A., priority 2007, published 2011).
Values joined by “and” are separate entries in the source; they are usually repeats but may differ in a detail not shown here. Identical values can stand only once.

Key:
[1] = tested on: IFN-γ secretion by T cells; experiment: IFN-γ ELISpot of spleen cells from immunized mice; format: in vivo, SJL/J mice; parameters: key to IFN-γ: −: negative; +/−: very weak; +: weak; ++: moderate; +++: strong
Experimental: Female 6-8 week old SJL/J mice used in all experiments, were purchased from Walter and Eliza Hall Institute (VIC Australia) and housed at the Biological Research Laboratory at Burnet Institute at Austin, Heidelberg, Australia. SJL/J mice were immunized twice on days 0, 14 intradermally (base of tail) with 50 μg MBP83-99 peptide analogue-KLH-reduced mannan.
ELISpot analyses specific T cell responses to antigens by detecting the secretion of specific cytokines. Spleen cells from immunized SJL/J mice were isolated 14 days after immunization and assessed by ELISpot for IFN-γ, IL-4 or IL-10 secretion by T cells. IFN-γ ELISpot assay was performed on MultiScreen-IP Filter Plate (MAIP S4510) with hydrophobic PVDF filters (Millipore, UK) while IL-4 and IL-10 ELISpot was performed on MultiScreen-HA Filter Plate (MAHA S4510) with mixed cellulose esters filters (Millipore, UK). MAIP S4510 plates were pre-wet with 50 μl of 70% ethanol, washed 5 times with 200 μl sterile PBS and coated with 70 μl of 5 μg/ml anti-IFN-γ capture antibody, AN18 (Mabtech, Australia) in PBS and left to incubate at 4° C. O/N. While 70 μl of 5 μg/ml anti-IL-4 and anti-IL-10 capture antibody (Mabtech, Australia) was added directly to MAHA S4510 plates and incubated at 4° C. O/N without 70% ethanol treatment. Following 5 washes with PBS, plates were blocked by adding 200 μl of culture media (supplemented with 2.5% FCS) and incubated for 2 hours at 37° C. The blocking media was discarded and 10 μg/ml recall peptides (MBP83-99 peptide analogues not conjugated to KLH-reduced mannan) were added into each defined well. Con A (1.0 μg/ml; IL-4 and IFN-γ) or LPS (1.0 μg/ml; IL-10) were used as an internal positive controls and no peptide was used as negative control. Triplicate wells were set up for each condition. 5×10^5 spleen cells in 100 μl culture media were seeded into each well and incubated for 18 hours for IFN-γ, 24 hours for IL-4 and 48 hours for IL-10 at 37° C. Plates were washed 5 times PBS/0.05% Tween 20 and 5 times PBS and incubated for 2 hours at RT with anti-murine IFN-γ, IL-4 or IL-10 monoclonal antibody-biotin. Plates were washed and streptavidin-ALP was added at 1.0 μg/ml and incubated for 2.0 hours at RT. Spots of activity were detected using a colorimetric AP kit (Biorad, Hercules, Calif. USA) and counted using an AID ELISpot plate reader (Autoimmun Diagnostika GmbH, Germany). Data are presented as mean spot forming units (sfu) per 0.5×10^6 cells +/−standard error of the mean (SEM).
MBP87-99, [R^91, A^96]MBP87-99 or [A^91, A^96]MBP87-99 peptides were dissolved in PBS and emulsified in an equal volume of complete Freund's adjuvant (CFA) which contained 1.0 mg/ml of heat killed Mycobacterium tuberculosis H37RA (Sigma, Victoria, Australia). SJL/J mice were given one subcutaneous injection containing 50 μg peptide into the base of tail.
SJL/J mice were immunized twice on days 0 and 14 intradermally (base of tail) with 50 μg MBP87-99-KLH-reduced mannan, [R^91, A^96]MBP87-99-KLH-reduced mannan or [A^91, A^96]MBP87-99-KLH-reduced mannan conjugates.
ELISpot detects specific T cell responses to antigens by measuring the secretion of specific cytokines from individual cells. Spleen cells from immunized SJL/J mice were isolated 28 days after CFA immunization or 14 days after the last immunization with reduced mannan-peptides and assessed by ELISpot for IFN-γ and IL-4 secretion by T cells. IFN-γ ELISpot assay was performed on MultiScreen-IP Filter Plate (MAIP S4510) with hydrophobic PVDF filters (Millipore, UK), while IL-4 ELISpot assays were performed on MultiScreen-HA Filter Plate (MAHA S4510) with mixed cellulose esters filters (Millipore, UK). MAIP S4510 plates were pre-weted with 50 μl of 70% ethanol, washed 5 times with 200 μl of sterile phosphate-buffered saline (PBS) and coated with 70 μl of 5 μg/ml anti-IFN-γ capture antibody, AN18 (Mabtech, Australia) in PBS and incubated O/N at 4° C. […]

[2] = tested on: respective peptides conjugated to BSA or KLH; experiment: ELISA total IgG antibody responses to the respective peptide; format: in vivo, SJL/J mice; parameters: key to Antibody: −: negative; +/−: very weak; +: weak; ++: moderate; +++: strong
Experimental: Blood was collected and sera isolated from mice prior to and 4 weeks after immunization with CFA or 14 days after the last immunization with reduced mannan conjugates. MBP87-99 or [A^91, A^96]MBP87-99 peptides conjugated to BSA or KLH were coated onto polyvinyl chloride (PVC) microtiter plates at 10 μg/ml in 0.2 M NaHCO3 buffer, pH 9.6, 0/N at 4° C. Non-specific binding was blocked with 2% BSA for 1.0 h at RT. After washing (0.05 Tween 20/PBS), serial dilutions of sera were added and incubated for a further 2 h at RT. The plates were washed and bound antibody was detected using HRP-conjugated sheep anti-mouse antibody (1/1000 dilution in PBS) (Amersham, UK) and developed using 2,2′-azino-di(3-ethylbenzthiazoline)6-sulfonic acid (ABTS) (Sigma, UK). Absorbance at 405 nm was recorded using a Fluostar Optima microplate reader (BMG labtech, Offenburg, Germany).
ELISpot assays for IFN-γ and IL-4 secretion by T cells and ELISA assays for binding of sera to native MBP protein or peptide were carried out as previously described^3, 4, 20, 21. Mean values were compared using the Student's two-tailed t-test. P value threshold of p<0.01 indicates a statistically significant difference.

[3] = 50 μg peptide conjugated to reduced mannan, two intradermal injections, spleen cells 14 days post-immunization
[4] = 50 μg peptide emulsified in CFA, one injection, spleen cells 28 days
[5] = Table 3, peptide analogues emulsified in complete Freund's adjuvant
[6] = Table 2, peptide analogues conjugated to reduced mannan-KLH
[7] = peptide conjugated to reduced mannan

For CC[C@H](C)[C@@H]1NC(=O)[C@H](CC(N)=O)NC(=O)[C@H](CCCCN)NC(=O)[C@H](Cc2ccccc2)NC(=O)[C@H](Cc2ccccc2)NC(=O)[C@H](Cc2c[nH]cn2)NC(=O)[C@H](C(C)C)NC(=O)[C@H](C(C)C)NC(=O)[C@@H]2CCCN2C(=O)[C@H](CC(N)=O)NC(=O)[C@H](CCC(=O)O)NC(=O)[C@@H]2CCCN2C(=O)[C@H]([C@@H](C)O)NC(=O)[C@H](CCCNC(=N)N)NC(=O)[C@@H]2CCCN2C(=O)[C@H]([C@@H](C)O)NC(=O)[C@H](C(C)C)NC1=O [cyclo(83-99)MBP83-99, cyclo(83-99)E N P V V H F F K N I V T P R T P], the “IFN-γ secreting T cells (in words)” value [1, 3] was “weak and generated IFN-γ secreting T cells”, the “IFN-γ secreting T cells (in words)” value [1, 4] was “induced IFN-γ responses” and the IFN-γ [1, 5] was “+”. The “IgG antibody responses (in words)” value ([2]; peptide emulsified in CFA) was “antibodies were generated”.

In the case of “E N P V V H F F A N I V T P R T P (ENPVVHFFANIVTPRTP) [[A^91]MBP83-99]”, the “IFN-γ secreting T cells (in words)” value [1, 3] is reported as “negative”, the “IFN-γ secreting T cells (in words)” value [1, 4] is reported as “lower” and the IFN-γ [1, 6] is reported as “−”. The IFN-γ [1, 5] was “−”, the Antibody [2, 6] was “+” and the Antibody [2, 5] was “++”. The “subclass of the antibodies induced” value [2, 7] was “IgG1”, the “total IgG antibody titer” value [2, 7] was 1/640 and the “IgG antibody responses (in words)” value ([2]; peptide emulsified in CFA) was “able to induce IgG antibody responses”.

For “E N P V V H F F E N I V T P R T P (ENPVVHFFENIVTPRTP) [[E^91]MBP83-99]”, the IFN-γ [1, 6] was “−”, the IFN-γ [1, 5] was “−” and the Antibody [2, 6] was “+++”. For the same compound, the Antibody [2, 5] was “++” and the “subclass of the antibodies induced” value [2, 7] was “IgG1”.

With “E N P V V H F F F N I V T P R T P (ENPVVHFFFNIVTPRTP) [[F^91]MBP83-99]” the “IFN-γ secreting T cells (in words)” value [1, 3] was “weak and induced”, the IFN-γ [1, 6] was “++” and the IFN-γ [1, 5] was “++”. For the same compound, the Antibody [2, 6] was “+/−”, the Antibody [2, 5] was “++” and the “IgG antibody responses (in words)” value [2, 7] was “weak”. For the same compound, the “total IgG antibody titer” value [2, 7] was 1/800.

With “E N P V V H F F K N I V T P R T P (ENPVVHFFKNIVTPRTP) [MBP83-99, reference compound]” the “IFN-γ secreting T cells (in words)” value [1, 3] was “weak and generated IFN-γ secreting T cells and high levels”, the “IFN-γ secreting T cells (in words)” value [1, 4] was “induced IFN-γ responses” and the IFN-γ [1, 6] was “++”. For the same compound, the IFN-γ [1, 5] was “+”, the Antibody [2, 6] was “+++” and the Antibody [2, 5] was “−”. For the same compound, the “IgG antibody responses (in words)” value ([2]; peptide emulsified in CFA) was “did not generate IgG antibodies”.

For “E N P V V H F F R N I V T A R T P (ENPVVHFFRNIVTARTP) [[R^91, A^96]MBP83-99]”, the “IFN-γ secreting T cells (in words)” value [1, 3] was “no IFN-γ”, the IFN-γ [1, 6] was “−” and the IFN-γ [1, 5] was “++”. For the same compound, the Antibody [2, 6] was “+++”, the Antibody [2, 5] was “++” and the “subclass of the antibodies induced” value [2, 7] was “IgG1”.

In the case of “E N P V V H F F Y N I V T P R T P (ENPVVHFFYNIVTPRTP) [[Y^91]MBP83-99]”, the IFN-γ [1, 6] is reported as “−”, the IFN-γ [1, 5] is reported as “−” and the Antibody [2, 6] is reported as “+++”. For the same compound, the Antibody [2, 5] was “−” and the “subclass of the antibodies induced” value [2, 7] was “IgG1”.

In the case of “cyclo(83-99)E N P V V H F F A N I V T P R T P (ENPVVHFFANIVTPRTP; cyclised or stapled) [cyclo(83-99)[A^91]MBP83-99]”, the “IFN-γ secreting T cells (in words)” value [1, 3] is reported as “negative”, the “IFN-γ secreting T cells (in words)” value [1, 4] is reported as “lower” and the IFN-γ [1, 6] is reported as “−”. For the same compound, the IFN-γ [1, 5] was “−”, the Antibody [2, 6] was “+/−” and the Antibody [2, 5] was “+”. For the same compound, the “total IgG antibody titer” value [2, 7] was 1/800 and 1/1600 and the “IgG antibody responses (in words)” value ([2]; peptide emulsified in CFA) was “enhanced”.
